Source: patent publication US4459290A, “C-23-Modified derivatives of OMT, pharmaceutical compositions and method of use” (priority 1982, dated 1984)
Counter-ions that a name gives are not always drawn. Like-named read-outs stand apart in the source and are kept apart here.

How the values were obtained:
Mycoplasma hyorhinis = assay: MIC, broth-dilution microtiter test (Table VII); type: cell-based; settings: M. hyorhinis; broth-dilution microtiter; read-out: MIC
Description: (§1) Especially noteworthy is the improved activity against gram-negative bacteria for several derivatives when compared to the activity of OMT. […] The MIC's in Tables V and VI were determined by standard agar-dilution assays. The MIC's in Table VII were obtained using a conventional broth-dilution microtiter test.

[1] = tested on: Pasteurella hemolytica 23C; assay: MIC, broth-dilution microtiter test (Table VII); type: cell-based; settings: Pasteurella, P. hemolytica 23C, read-out: MIC
Description: as §1

[2] = tested on: Pasteurella hemolytica 41D; assay: MIC, broth-dilution microtiter test (Table VII); type: cell-based; settings: Pasteurella, P. hemolytica 41D, read-out: MIC
Description: as §1

[3] = tested on: Pasteurella multocida 17E; assay: MIC, broth-dilution microtiter test (Table VII); type: cell-based; settings: Pasteurella multocida, 17E
Description: as §1

Staphylococcus aureus = assay: MIC, broth-dilution microtiter test (Table VII); type: cell-based; settings: Staphylococcus aureus; S. aureus; broth-dilution microtiter; read-out: MIC
Description: as §1

[4] = tested on: Pasteurella multocida 22A; assay: MIC, broth-dilution microtiter test (Table VII); type: cell-based; settings: Pasteurella multocida; P. multocida 22A; broth-dilution microtiter; read-out: MIC
Description: as §1

[5] = tested on: Pasteurella multocida 60A; assay: MIC, broth-dilution microtiter test (Table VII); type: cell-based; settings: Pasteurella multocida, 60A
Description: as §1

Streptococcus sp. 80 = assay: MIC, broth-dilution microtiter test (Table VII); type: cell-based; settings: Streptococcus sp. 80; broth-dilution microtiter; read-out: MIC
Description: as §1

[6] = tested on: Pasteurella hemolytica 22C; assay: MIC, broth-dilution microtiter test (Table VII); type: cell-based; settings: Pasteurella, P. hemolytica 22C, read-out: MIC
Description: as §1

Mycoplasma gallisepticum = assay: MIC, broth-dilution microtiter test (Table VII); type: cell-based; settings: Mycoplasmoides gallisepticum
Description: as §1

[7] = tested on: Pasteurella multocida 68C; assay: MIC, broth-dilution microtiter test (Table VII); type: cell-based; settings: Pasteurella multocida; P. multocida 68C; broth-dilution microtiter; read-out: MIC
Description: as §1

Mycoplasma synoviae = assay: MIC, broth-dilution microtiter test (Table VII); type: cell-based; settings: Mycoplasmopsis synoviae
Description: as §1

[8] = tested on: Pasteurella multocida 40G; assay: MIC, broth-dilution microtiter test (Table VII); type: cell-based; settings: Pasteurella multocida; P. multocida 40G; broth-dilution microtiter; read-out: MIC
Description: as §1

[9] = tested on: Haemophilus influenzae Holt; assay: MIC, standard agar-dilution assay (Table V); type: cell-based; settings: Haemophilus influenzae; H. influenzae Holt, ampicillin-sensitive strain; agar dilution; read-out: MIC
Description: (§2) The MIC's in Tables V and VI were determined by standard agar-dilution assays. The MIC's in Table VII were obtained using a conventional broth-dilution microtiter test.

[10] = tested on: Haemophilus influenzae R252; assay: MIC, standard agar-dilution assay (Table V); type: cell-based; settings: Haemophilus influenzae; H. influenzae R252, ampicillin-resistant strain; agar dilution; read-out: MIC
Description: as §2

[11] = tested on: Streptococcus pyogenes C203; assay: MIC, standard agar-dilution assay (Table V); type: cell-based; settings: Streptococcus pyogenes; S. pyogenes C203; agar dilution; read-out: MIC
Description: as §2

Escherichia coli TEM = assay: MIC, standard agar-dilution assay (Table V); type: cell-based; settings: Escherichia coli
Description: as §2

[12] = tested on: Streptococcus pneumoniae Park I; assay: microbe, parasite or virus in culture; type: cell-based; settings: Streptococcus pneumoniae; S. pneumoniae Park I; agar dilution; read-out: MIC
Description: as §1

[13] = tested on: Staphylococcus aureus S13E; assay: MIC, standard agar-dilution assay (Table V); type: cell-based; settings: Staphylococcus aureus, S13E
Description: as §1

[14] = tested on: Staphylococcus aureus V41; assay: MIC, standard agar-dilution assay (Table V); type: cell-based; settings: Staphylococcus aureus, V41
Description: as §1

[15] = tested on: Staphylococcus aureus X400; assay: MIC, standard agar-dilution assay (Table V); type: cell-based; settings: Staphylococcus aureus, X400
Description: as §1

Shigella sonnei N9 = assay: MIC, standard agar-dilution assay (Table V); type: cell-based
Description: as §1

Streptococcus Group 9960 = assay: MIC, standard agar-dilution assay (Table V); type: cell-based; settings: GROUP9960
Description: as §1

[16] = tested on: Klebsiella pneumoniae KAE; assay: MIC, standard agar-dilution assay (Table V); type: cell-based; settings: Klebsiella pneumoniae
Description: as §1

[17] = tested on: Staphylococcus aureus X1.1; assay: MIC, standard agar-dilution assay (Table V); type: cell-based; settings: Staphylococcus aureus, X1.1
Description: as §1

Escherichia coli EC14 = assay: MIC, standard agar-dilution assay (Table V); type: cell-based; settings: Escherichia coli, EC14
Description: as §1

[18] = tested on: Staphylococcus epidermidis EPI2; assay: MIC, standard agar-dilution assay (Table V); type: cell-based; settings: Staphylococcus epidermidis, EPI2
Description: as §1

[19] = tested on: Streptococcus Group D X66; assay: MIC, standard agar-dilution assay (Table V); type: cell-based
Description: as §1

[20] = tested on: Staphylococcus epidermidis EPI1; assay: MIC, standard agar-dilution assay (Table V); type: cell-based; settings: Staphylococcus epidermidis; S. epidermidis EPI1; agar dilution; read-out: MIC
Description: as §1

[21] = tested on: Klebsiella pneumoniae X26; assay: MIC, standard agar-dilution assay (Table V); type: cell-based; settings: Klebsiella pneumoniae; K. pneumoniae X26; agar dilution; read-out: MIC
Description: as §1

Escherichia coli N10 = assay: MIC, standard agar-dilution assay (Table V); type: cell-based; settings: Escherichia coli, N10
Description: as §1

[22] = tested on: Streptococcus pyogenes C203; assay: ED50 in mice experimentally infected with S. pyogenes C203 (Table VIII); type: in vivo
Description: The C-23 modified derivatives of OMT of this invention have shown in vivo antimicrobial activity against experimental infections. When two doses of test compound were administered to mice experimentally infected with a gram-positive bacterium, S. pyogenes C203, the activity observed was measured as an ED50 value [effective dose in mg/kg to protect 50% of the test animals: see Warren Wick, et al., J. Bacteriol. 81, 233-235 (1961)].

Pasteurella multocida = assay: Protection of one-day-old chicks against Pasteurella multocida infection (Table IX); type: in vivo; settings: subcutaneous 30 mg/kg × 2, 1 and 4 hours post-challenge
Description: The C-23 modified derivatives of OMT have also shown in vivo antibacterial activity against infections induced by gram-negative bacteria. Table IX summarizes the results of tests in which illustrative compounds were evaluated against Pasteurella infections in one-day-old chicks. The compounds were administered by subcutaneous injection at a dosage of 30 mg/kg, 1 and 4 hours post-challenge of the chicks with Pasteurella multocida (0.1 ml of a twenty-hour tryptose broth culture of an avian P. multocida given subcutaneously). In the tests, all ten non-medicated infected chicks died within 24 hours of Pasteurella challenge.

For `CCC1OC(=O)CC(O)C(C)C(OC2OC(C)C(O)C(N(C)C)C2O)C(CC=O)CC(C)C(=O)C=CC(C)=CC1CNC(=O)[C@H](N)c1ccccc1` (single isomer, unassigned) [Compound 12, 23-Deoxy-23-N-(D-(-)-phenylglycyl)amino-OMT bis(trifluoroacetate) salt], the MIC (Mycoplasma hyorhinis) was > 50 µg/mL, the MIC [1] was 50 µg/mL and the MIC [2] was 50 µg/mL. It also gave an MIC [3] of 12.5 µg/mL, an MIC (Staphylococcus aureus) of 6.25 µg/mL and an MIC [4] of 25 µg/mL. For the same compound, the MIC [5] was 12.5 µg/mL, the MIC (Streptococcus sp. 80) was 6.25 µg/mL and the MIC [6] was 50 µg/mL. The MIC (Mycoplasma gallisepticum) was 3.12 µg/mL, the MIC [7] was 25 µg/mL and the MIC (Mycoplasma synoviae) was 3.12 µg/mL. It also gave an MIC [8] of 25 µg/mL, an MIC [9] of 16 µg/mL and an MIC [10] of 16 µg/mL. For the same compound, the MIC [11] was 0.5 µg/mL, the MIC (Escherichia coli TEM) was > 128 µg/mL and the MIC [12] was 0.5 µg/mL. It also gave an MIC [13] of 8 µg/mL, an MIC [14] of 8 µg/mL and an MIC [15] of 8 µg/mL. The MIC (Shigella sonnei N9) was > 128 µg/mL, the MIC (Streptococcus Group 9960) was 8 µg/mL and the MIC [16] was > 128 µg/mL. For the same compound, the MIC [17] was 4 µg/mL, the MIC (Escherichia coli EC14) was > 128 µg/mL and the MIC [18] was 8 µg/mL. For the same compound, the MIC [19] was 8 µg/mL, the MIC [20] was 4 µg/mL and the MIC [21] was 16 µg/mL. The MIC (Escherichia coli N10) was > 128 µg/mL, the ED50 ([22]; C203, po, read-out: ED50, Oral) was > 100 mg/kg and the ED50 ([22]; C203, sc, mice, subcutaneous, doses given 1 and 4 hours postinfection, read-out: ED50, Subcutaneous) was 6.2 mg/kg. The “Number of deaths/number treated” value (Pasteurella multocida) was 9/10.
